From US20250042969A1, “ANTIGEN DISCOVERY FOR T CELL RECEPTORS ISOLATED FROM PATIENT TUMORS RECOGNIZING WILD-TYPE ANTIGENS AND POTENT PEPTIDE MIMOTOPES” (The Board of Trustees of the Leland Stanford Junior …, priority 2017, published 2025)
No end group written: not given here.

Columns and labels:
TCR 4B = assay: CD69 activation of SKW-3 T cells expressing TCR 4B co-cultured with peptide-pulsed T2 cells; settings: T2 cells pulsed with 100 μM peptide 3 hours, co-incubated 18 hours, flow cytometry
From the text: Measuring T cell activation in co-culture assays. The four TCRs identified from the colorectal cancer patients that selected peptides from the library were cloned into a MSCV-based vector pMIG II in α-P2A-β configuration using the wildtype signal peptides of the TCR variable genes and full length, unmodified constant regions. The P2A skip sequence allows for 1:1 stoichiometric expression of the TCRs. A MSCV-based vector pMIG II was also used to generate human CD3 in the format of δ-F2A-γ-T2A-ε-P2A-ζ. A packaging vector pCL10A was used to incorporate env, gag, and pol to allow for human mammalian tropism and viral generation. The vectors introduced puromycin and zeocin selectivity into infected cells. […] The viruses were generated using X-tremeGENE 9 DNA transfection reagent (Sigma-Aldrich) in serum-free DMEM. In cell culture, 2% FBS DMEM was used to recover the cells and media was changed at 12 hours. […] The 2 mL virus of TCR and 2 mL virus of human CD3 was used to co-infect 2×10^6 SKW-3 cells with 5 ug/mL polybrene (Millipore) by spinning for 2 hrs at 2500 rpm at 32° C. The virus was removed and replaced with media and cells cultured. The transduced SKW-3 cells were cultured after 2-3 days in 20 ug zeocin and 1 ug puromycin indefinitely to select for TCR and human CD3 co-expression. Cells were then co-stained for TCR (IP26, BioLegend) and human CD3 (UCHT1, BioLegend) and sorted on the SH800 cell sorter (Sony Biotechnology Inc.).
The transduced SKW-3 cells were co-cultured with TAP-deficient T2 cells in a 2:1 ratio with various peptide dilutions. The top 5 synthetic peptides isolated from the yeast-display selections were tested along with predictions determined from the 3 prediction algorithms. Peptides were synthesized to >70% purity (Genscript) (Elim Biopharm) and resuspended in dimethylsulfoxide to 20 mM and stored at −20° C. CD69 (FN50, BioLegend) was measured at 18 hours to detect early T cell activation by flow cytometry using the Accuri C6 (BD Biosciences). SKW-3 T cells were detected by UCHT1 staining and checked for TCR and CD3 expression. T2 cells were checked for HLA-A*02 expression by antibody (BB7.2, BioLegend). Data was analyzed using FlowJo version 10 (FlowJo, LLC) and samples were gated on SKW-3 cells by forward and side scatter and UCHT1+ cells followed by analysis for CD69 expression. Experiments were done in biological triplicate and technical triplicate. P-values were calculated by ordinary one-way ANOVA in Prism and experiments plotted with either standard deviation or standard error of the mean as indicated.
T-cell stimulation assays using SKW-3 cells. Data is analyzed using Flowjo to gate SKW-3 cells and CD3^+ group to identify T cells. T cells are then gated on CD69 expression using the negative control (no peptide). The median MFI expression of CD69 in the CD3^+ group and the percentage of cells expressing CD69 have been analyzed. One-way ordinary ANOVA was determined for both analyses using Prism in comparison to the negative control (no peptide). The 100 μM peptide stimulation is completed in biological and technical triplicate. Only one of the biological triplicates is shown. The peptide titration experiments were done in biological triplicate. All biological triplicates were analyzed collectively.

TCR 2A [1] = assay: TCR 2A tetramer staining of yeast expressing single-chain peptide-HLA-A*02:01; assay type: binding, human; settings: 400 nM TCR tetramer
Experimental: (§1) Individual yeast clones isolated from the selections or competent yeast electroporated with reconstructed peptide-HLA constructs identified from the deep sequencing were stained with 400 nM TCR tetramer labeled with SA-647 or SA-647 alone in combination with anti-epitope tag.
Target sequence in this assay (as listed by the source): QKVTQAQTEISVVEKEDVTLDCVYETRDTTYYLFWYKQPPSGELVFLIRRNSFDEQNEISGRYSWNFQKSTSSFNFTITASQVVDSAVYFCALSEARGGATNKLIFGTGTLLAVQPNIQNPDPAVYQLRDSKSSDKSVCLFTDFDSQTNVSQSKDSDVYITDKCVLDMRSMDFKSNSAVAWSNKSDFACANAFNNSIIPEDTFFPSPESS
Target sequence in this assay (as listed by the source): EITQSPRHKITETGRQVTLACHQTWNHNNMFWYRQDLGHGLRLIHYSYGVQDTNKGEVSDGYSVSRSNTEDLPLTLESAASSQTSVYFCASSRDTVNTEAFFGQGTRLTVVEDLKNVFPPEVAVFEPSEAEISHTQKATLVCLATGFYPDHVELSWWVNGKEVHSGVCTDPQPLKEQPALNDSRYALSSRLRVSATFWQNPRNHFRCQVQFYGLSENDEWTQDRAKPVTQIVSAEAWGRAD

[2] = tested on: SKW-3 cells expressing TCR2A; assay: pHLA tetramer staining of SKW-3 cells expressing TCR2A; assay type: binding, human
TCR 3B [3] = assay: TCR 3B tetramer staining of yeast expressing single-chain peptide-HLA-A*02:01; assay type: binding, human; settings: 400 nM TCR tetramer
Experimental: as §1
Target sequence in this assay (as listed by the source): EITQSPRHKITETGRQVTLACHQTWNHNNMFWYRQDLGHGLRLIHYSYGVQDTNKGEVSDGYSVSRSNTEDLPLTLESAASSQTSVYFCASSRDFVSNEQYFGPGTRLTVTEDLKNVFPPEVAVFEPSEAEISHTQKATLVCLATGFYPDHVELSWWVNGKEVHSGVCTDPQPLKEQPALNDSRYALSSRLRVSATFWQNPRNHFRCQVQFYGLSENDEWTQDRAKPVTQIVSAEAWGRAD

[4] = tested on: SKW-3 cells expressing TCR 3B; assay: pHLA tetramer staining of SKW-3 cells expressing TCR 3B; assay type: binding, human
TCR 3B [5] = assay: CD69 activation of SKW-3 T cells expressing TCR 3B co-cultured with peptide-pulsed T2 cells; settings: T2 cells pulsed with 100 μM peptide 3 hours, co-incubated 18 hours, flow cytometry
Target sequence in this assay (as listed by the source): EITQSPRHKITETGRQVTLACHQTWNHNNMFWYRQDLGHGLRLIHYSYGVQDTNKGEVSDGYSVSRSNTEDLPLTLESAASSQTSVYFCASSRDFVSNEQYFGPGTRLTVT
Target sequence in this assay (P61769 21-119): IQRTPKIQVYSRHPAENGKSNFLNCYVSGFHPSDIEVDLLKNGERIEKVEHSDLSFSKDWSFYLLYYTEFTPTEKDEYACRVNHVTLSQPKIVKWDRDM
Target sequence in this assay (as listed by the source): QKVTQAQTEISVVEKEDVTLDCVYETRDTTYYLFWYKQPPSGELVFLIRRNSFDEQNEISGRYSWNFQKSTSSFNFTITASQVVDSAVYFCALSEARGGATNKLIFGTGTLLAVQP
From the text: (§2) Measuring T cell activation in co-culture assays. The four TCRs identified from the colorectal cancer patients that selected peptides from the library were cloned into a MSCV-based vector pMIG II in α-P2A-β configuration using the wildtype signal peptides of the TCR variable genes and full length, unmodified constant regions. The P2A skip sequence allows for 1:1 stoichiometric expression of the TCRs. A MSCV-based vector pMIG II was also used to generate human CD3 in the format of δ-F2A-γ-T2A-ε-P2A-ζ. A packaging vector pCL10A was used to incorporate env, gag, and pol to allow for human mammalian tropism and viral generation. […]
(§3) The transduced SKW-3 cells were co-cultured with TAP-deficient T2 cells in a 2:1 ratio with various peptide dilutions. The top 5 synthetic peptides isolated from the yeast-display selections were tested along with predictions determined from the 3 prediction algorithms. […] CD69 (FN50, BioLegend) was measured at 18 hours to detect early T cell activation by flow cytometry using the Accuri C6 (BD Biosciences). SKW-3 T cells were detected by UCHT1 staining and checked for TCR and CD3 expression. […] Data was analyzed using FlowJo version 10 (FlowJo, LLC) and samples were gated on SKW-3 cells by forward and side scatter and UCHT1+ cells followed by analysis for CD69 expression. […]
(§4) T-cell stimulation assays using SKW-3 cells. […] All biological triplicates were analyzed collectively.

TCR 2A [6] = assay: CD69 activation of SKW-3 T cells expressing TCR 2A co-cultured with peptide-pulsed T2 cells; settings: T2 cells pulsed with 100 μM peptide 3 hours, co-incubated 18 hours, flow cytometry
Target sequence in this assay (P61769 21-119): as the sequence (P61769 21-119) above
Target sequence in this assay (as listed by the source): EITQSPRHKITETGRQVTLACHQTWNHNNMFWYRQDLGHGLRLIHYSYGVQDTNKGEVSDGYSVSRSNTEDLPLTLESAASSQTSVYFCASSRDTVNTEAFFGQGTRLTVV
From the text: as §2, §3, §4

NKI2 = assay: IFNγ production by NKI2-transduced peripheral blood lymphocytes with peptide-pulsed JY cells; assay type: cell-based, human; settings: 1:1 with peptide-pulsed JY cells, 5-hour incubation, intracellular staining
Experimental: CDK4-specific TCRs clone 10 (NKI1) and 17 (NKI2) were derived from TILs of a melanoma patient that were screened with HLA multimers loaded with predicted neoantigens, essentially as described. The variable parts of both TCRs were cloned into a retroviral vector encoding the murine TCR α and β constant domains. FLYRD18 packaging cells were plated in 10 cm dishes at 1.2×10^6 cells/well. After one day, cells were transfected with 10 μg retroviral vector DNA encoding the CDK4 TCRs using 25 μl X-tremeGENE HP DNA (Sigma-Aldrich). After 48 hrs, retroviral supernatant was isolated and transferred to retronectin-coated 24-well plates and centrifuged for 90 minutes at 430 g. PBMCs were activated and selected with anti-CD3/CD28 beads (ThermoFisher) at a bead-to-cell ratio of 3:1. Forty-eight hours after stimulation, T cells were plated at 0.5×10^6 cells/mL on virus-coated plates. Surface expression of the introduced CDK4 TCRs on transduced T cells was measured using APC labeled CDK4 R>L HLA-A*02:01 tetramers in combination with anti-murine VB TCR-PE labeled antibody (BD Biosciences). Cells were analyzed using a FACSCalibur (Becton Dickinson). JY cells were pulsed with the CDK4 peptide or the predicted peptides at the indicated concentrations for 1 hr at 37° C. and then washed two times. […]

## TMETIDWKV
TCR 4B
  CD69 activation of TCR 4B T cell line: stimulated

## LLEDLDWDV
TCR 4B
  CD69 activation of TCR 4B T cell line: stimulated

## MMDFFNAQM-HLA-A*02:01: U2AF2 peptide MMDFFNAQM in complex with HLA-A*02:01, as yeast single-chain trimer or refolded tetramer (not fully specified (C-terminus); also: in complex with HLA-A*02:01 (single-chain trimer or refolded tetramer))
TCR 2A [1]
  TCR 2A tetramer staining of yeast: lack of TCR tetramer staining
[2]
  pHLA tetramer staining of SKW-3 cells expressing TCR2A: failed to stain
TCR 3B [3]
  TCR 3B tetramer staining of yeast: lack of TCR tetramer staining
[4]
  pHLA tetramer staining of SKW-3 cells expressing TCR 3B: failed to stain

## KLEQLDWTV
TCR 4B
  CD69 activation of TCR 4B T cell line: stimulated

## MMDFFNAQM
TCR 3B [5]
  CD69 activation of TCR 3B T cell line: found to stimulate T cells
TCR 2A [6]
  CD69 activation of TCR 2A T cell line: found to stimulate T cells

## NMEYMTWDV
TCR 4B
  CD69 activation of TCR 4B T cell line: stimulated

## VLEEVDWLI
TCR 4B
  CD69 activation of TCR 4B T cell line: stimulated

## TLEELDWCL
TCR 4B
  CD69 activation of TCR 4B T cell line: stimulated

## VLDFQGQL
TCR 2A [6]
  CD69 activation of TCR 2A T cell line: able to stimulate the receptor

## ALDSRSEHFM [top peptide mimotope selected by NKI2]
NKI2
  IFNγ production by NKI2 transduced T cells: stimulated these cells as potently as the CDK4 neoantigen

## NVEYYDIKL
TCR 4B
  CD69 activation of TCR 4B T cell line: stimulated
